From PubChem BioAssay (NCI)
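48-hour exposure; five concentrations; linearly interpolated endpoints. GI50 = concentration required for 50% inhibition of growth. TGI: total growth inhibition.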

Tests used:
Test in all cases: NCI tumour cell line growth inhibition, 48 h
[1] = test system: MCF7 breast
[2] = test system: EKVX NSCLC
[3] = test system: 786-0 renal
[4] = test system: OVCAR-8 ovarian
[5] = test system: SW-620 colon
[6] = test system: NCI-H226 lung
[7] = test system: HCT-116 colon
[8] = test system: MDA-MB-231 breast
[9] = test system: OVCAR-4 ovarian
[10] = test system: HOP-92 NSCLC
[11] = test system: HCC-2998 colon
[12] = test system: HT29 colon
[13] = test system: OVCAR-3 ovarian
[14] = test system: LOX IMVI melanoma
[15] = test system: CAKI-1 renal
[16] = test system: M14 melanoma
[17] = test system: MDA-MB-435
[18] = test system: UO-31 renal
[19] = test system: ACHN renal
[20] = test system: MALME-3M melanoma
[21] = test system: NCI-H23 lung
[22] = test system: SK-MEL-28 melanoma
[23] = test system: SNB-75 CNS
[24] = test system: UACC-62 melanoma
[25] = test system: SK-MEL-5 melanoma
[26] = test system: HS 578T breast
[27] = test system: SN12C renal
[28] = test system: U251 CNS
[29] = test system: SNB-19 CNS
[30] = test system: PC-3 prostate
[31] = test system: TK-10 renal
[32] = test system: A549 NSCLC
[33] = test system: K-562 leukemia
[34] = test system: UACC-257 melanoma
[35] = test system: NCI-H460 lung
[36] = test system: KM12 colon
[37] = test system: DU-145 prostate
[38] = test system: MOLT-4 leukemia
[39] = test system: HL-60(TB) leukemia
[40] = test system: SF-295 CNS
[41] = test system: NCI/ADR-RES ovarian
[42] = test system: COLO 205 colon
[43] = test system: OVCAR-5 ovarian
[44] = test system: T-47D breast
[45] = test system: SR leukemia
[46] = test system: RXF 393 renal
[47] = test system: SK-OV-3 ovarian
[48] = test system: SF-539 CNS
[49] = test system: RPMI-8226 leukemia
[50] = test system: HCT-15 colon
[51] = test system: SK-MEL-2 melanoma
[52] = test system: IGROV1 ovarian
[53] = test system: NCI-H522 lung
[54] = test system: HOP-62 NSCLC
[55] = test system: BT-549 breast
[56] = test system: CCRF-CEM leukemia
[57] = test system: SF-268 CNS

CC(C)(C)OC(=O)NCc1cccc(N=C=S)c1
GI50 [1]: 16.6 µM
TGI [1]: 42.4 µM
GI50 [2]: 23.4 µM
TGI [2]: 61 µM
GI50 [3]: 21.6 µM
TGI [3]: 44.1 µM
GI50 [4]: 29.6 µM
TGI [4]: > 92.7 µM
GI50 [5]: 18.9 µM
TGI [5]: 47.7 µM
GI50 [6]: 19.1 µM
TGI [6]: 51.4 µM
GI50 [7]: 18 µM
TGI [7]: 36 µM
GI50 [8]: 25.7 µM
TGI [8]: > 85.7 µM
GI50 [9]: 16.7 µM
TGI [9]: 51.8 µM
GI50 [10]: 14.6 µM
TGI [10]: 62.2 µM
GI50 [11]: 16.3 µM
TGI [11]: 30.9 µM
GI50 [12]: 23.2 µM
TGI [12]: 54 µM
GI50 [13]: 16.4 µM
TGI [13]: 31.2 µM
GI50 [14]: 16.7 µM
TGI [14]: 31.9 µM
GI50 [15]: 20.5 µM
TGI [15]: 53.9 µM
GI50 [16]: 15.3 µM
TGI [16]: 37 µM
GI50 [17]: 18.5 µM
TGI [17]: 63.1 µM
GI50 [18]: 15.4 µM
TGI [18]: 38.8 µM
GI50 [19]: 21.1 µM
TGI [19]: 67.6 µM
GI50 [20]: 14.4 µM
TGI [20]: 45.1 µM
GI50 [21]: 18.5 µM
TGI [21]: 47.6 µM
GI50 [22]: 16.9 µM
TGI [22]: 37.7 µM
GI50 [23]: 14.1 µM
TGI [23]: > 59.6 µM
GI50 [24]: 14.4 µM
TGI [24]: 30.6 µM
GI50 [25]: 14.9 µM
TGI [25]: 28.4 µM
GI50 [26]: 24.6 µM
TGI [26]: > 84.8 µM
GI50 [27]: 22.1 µM
TGI [27]: 60.3 µM
GI50 [28]: 23 µM
TGI [28]: 53.4 µM
GI50 [29]: 17.6 µM
TGI [29]: 44.7 µM
GI50 [30]: 21.5 µM
TGI [30]: 51.8 µM
GI50 [31]: 25.8 µM
TGI [31]: 70.8 µM
GI50 [32]: 28 µM
TGI [32]: 72.1 µM
GI50 [33]: 28.4 µM
TGI [33]: > 88.2 µM
GI50 [34]: 21.7 µM
TGI [34]: 54.4 µM
GI50 [35]: 20.5 µM
TGI [35]: 46.1 µM
GI50 [36]: 16.5 µM
TGI [36]: 32.8 µM
GI50 [37]: 22.7 µM
TGI [37]: 59.2 µM
GI50 [38]: 19.7 µM
TGI [38]: 53.6 µM
GI50 [39]: 28.2 µM
TGI [39]: 69.8 µM
GI50 [40]: 17.5 µM
TGI [40]: 40.9 µM
GI50 [41]: 26.2 µM
TGI [41]: 79.4 µM
GI50 [42]: 15.7 µM
TGI [42]: 33.9 µM
GI50 [43]: 20.6 µM
TGI [43]: 74.9 µM
GI50 [44]: 16.5 µM
TGI [44]: 36.6 µM
GI50 [45]: 20 µM
TGI [45]: > 81.9 µM
GI50 [46]: 16.8 µM
TGI [46]: 36.1 µM
GI50 [47]: 35.5 µM
TGI [47]: > 84.9 µM
GI50 [48]: 21.1 µM
TGI [48]: 59.7 µM
GI50 [49]: 17.2 µM
TGI [49]: 56.7 µM
GI50 [50]: 16.6 µM
TGI [50]: 36.5 µM
GI50 [51]: 21.3 µM
TGI [51]: 45.7 µM
GI50 [52]: 19.3 µM
TGI [52]: 41.8 µM
GI50 [53]: 17.4 µM
TGI [53]: 44.1 µM
GI50 [54]: 21.8 µM
TGI [54]: 55.8 µM
GI50 [55]: 19.2 µM
TGI [55]: 44.2 µM
GI50 [56]: 21 µM
TGI [56]: 55.9 µM
GI50 [57]: 21 µM
TGI [57]: 64.9 µM
